According to US10988523B2, “Modified lipidated Relaxin B chain peptides and their therapeutic use” (Sanofi, priority 2018, dated 2021):
*1 amine or outer side, *2 acyl side, *3 side chain or, on linkers, in order; H or OH if unused. Where a SMILES comes first, the peptide text is derived from it. Side-chain parts run from the residue outwards. [ ]: non-standard residue; d: D form. The star is where a group is joined. X3 = CCCCCCCCCCCCCCCC(=O)N[C@@H](CCC(=O)N[C@@H](CCC(=O)N[C@@H](CCC(=O)N[C@@H](CCC(=O)NCCCC[C@H](NC(=O)CCC(=O)NCCCOCCOCCOCCCNC(=O)CCC(=O)NCCCOCCOCCOCCCN*)C(N)=O)C(=O)O)C(=O)O)C(=O)O)C(=O)O; X5 = CCCCCCCCCCCCCCCC(=O)N[C@@H](CCC(=O)NCCCC[C@H](NC(=O)CC[C@H](NC(=O)CC[C@H](NC(=O)CC[C@H](NC(=O)CCC(=O)NCCCOCCOCCOCCCNC(=O)CCC(=O)NCCCOCCOCCOCCCN*)C(=O)O)C(=O)O)C(=O)O)C(N)=O)C(=O)O; γGlu = O=C(O)[C@H](CCC(=O)[*:2])N[*:1]; Palmitoyl = CCCCCCCCCCCCCCCC(=O)*; αMeK = C[C@](N)(CCCCN)C(=O)O; Nle = CCCC[C@H](N)C(=O)O; AEEA = NCCOCCOCC(=O)O; Aib = CC(C)(N)C(=O)O

Assays:
[1] = target: T1, RXFP1 (Homo sapiens, UniProt Q9HBX9); experiment: OVCAR5 cAMP assay (HTRF), RXFP1 agonist activity; format: cell-based; conditions: for EC50: OVCAR5 cells, cAMP HTRF, read-out: EC50 (nM), OVCAR 5 cells (cAMP); for Emax: OVCAR-5, maximal cAMP relative to H2-relaxin maximum (100%), read-out: EMax, OVCAR 5 cells (cAMP)
T1 construct: OVCAR5 cells expressing endogenous RXFP1; endogenous in cells; host or cells: OVCAR5 cells
T1 sequence (Q9HBX9 1-757): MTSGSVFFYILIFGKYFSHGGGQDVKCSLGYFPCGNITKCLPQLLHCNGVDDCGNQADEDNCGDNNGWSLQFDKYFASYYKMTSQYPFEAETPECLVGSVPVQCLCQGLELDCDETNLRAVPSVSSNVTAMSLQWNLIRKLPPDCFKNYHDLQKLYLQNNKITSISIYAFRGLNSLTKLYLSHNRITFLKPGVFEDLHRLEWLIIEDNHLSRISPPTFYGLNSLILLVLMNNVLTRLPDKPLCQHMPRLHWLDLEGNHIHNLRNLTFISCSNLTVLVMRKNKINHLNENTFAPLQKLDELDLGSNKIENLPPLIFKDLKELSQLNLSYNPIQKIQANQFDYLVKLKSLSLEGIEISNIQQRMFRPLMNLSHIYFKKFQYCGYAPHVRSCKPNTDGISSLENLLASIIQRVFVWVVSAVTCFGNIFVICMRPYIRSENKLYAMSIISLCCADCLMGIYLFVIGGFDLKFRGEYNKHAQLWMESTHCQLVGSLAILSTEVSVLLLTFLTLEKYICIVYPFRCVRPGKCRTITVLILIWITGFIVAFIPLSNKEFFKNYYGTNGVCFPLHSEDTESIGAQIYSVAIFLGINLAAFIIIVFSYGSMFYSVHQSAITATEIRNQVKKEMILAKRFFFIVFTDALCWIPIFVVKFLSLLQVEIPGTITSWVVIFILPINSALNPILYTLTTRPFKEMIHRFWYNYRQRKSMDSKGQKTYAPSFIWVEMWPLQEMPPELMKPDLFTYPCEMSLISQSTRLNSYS
In short: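 OVCAR5 cells (endogenous RXFP1) pretreated 40 min at 37° C with 1 mM IBMX, then exposed to peptides in serum-free medium for 30 min at 37° C. Lysate cAMP read by HTRF; EC50 from variable-slope sigmoidal fit; Emax as % of H2-relaxin maximal cAMP in same run.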

[2] = Pharmacokinetic (PK) determination after i.v. or s.c. administration to rats; format: in vivo, Sprague Dawley rats; conditions: Sprague Dawley, Rat PK; for C0 / half-life: iv, 1 mg/kg i.v.; for C0: extrapolated plasma concentration at t=0, read-out: C0; for half-life / Cmax / Tmax / bioavailability: plasma; for half-life: read-out: T½ (converted); for Cmax / Tmax: sc, 3 mg/kg s.c.; for bioavailability: subcutaneous, 3 mg/kg s.c. vs 1 mg/kg i.v., dose-corrected AUC ratio
In short: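 Sprague Dawley rats received peptide in PBS at 1 mg/kg i.v. or 3 mg/kg s.c., dose corrected for salts, solvent and purity. Plasma analysed by LC/MS after protein precipitation; non-compartmental PK, BLQ values set to zero, F% as dose-corrected s.c./i.v. AUC ratio.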

CCCCCCCCCCCCCCCC(=O)N[C@@H](CCC(=O)NCCCC[C@H](NC(=O)CC[C@H](NC(=O)CC[C@H](NC(=O)CC[C@H](NC(=O)CCC(=O)NCCCOCCOCCOCCCNC(=O)CCC(=O)NCCCOCCOCCOCCCNC(=O)[C@H](CCCCNC(C)=O)NC(=O)[C@H](C)NC(=O)[C@H](CCCNC(=N)N)NC(=O)[C@](C)(CCCCN)NC(=O)[C@H](CO)NC(=O)[C@H](Cc1ccccc1)NC(=O)[C@@H](NC(=O)[C@H](CO)NC(=O)[C@H](CCCC)NC(=O)CNC(=O)[C@H](CCC(=O)O)NC(=O)C(C)(C)NC(=O)C(C)(C)NC(=O)[C@@H](NC(=O)[C@H](CCCCNC(C)=O)NC(=O)[C@H](C)NC(=O)[C@H](CCCNC(=N)N)NC(=O)[C@@H](NC(=O)[C@H](CCCCN)NC(=O)[C@H](CCC(=O)O)NC(=O)[C@H](CCCNC(=N)N)NC(=O)CNC(=O)[C@H](CCC(=O)O)NC(=O)[C@H](CC(C)C)NC(C)=O)C(C)C)[C@@H](C)CC)[C@@H](C)O)C(=O)O)C(=O)O)C(=O)O)C(N)=O)C(=O)O [compound 157] (Ac-LEGREKVRAK(Ac)I[Aib][Aib]EG[Nle]STFS[αMeK]RAK(Ac)-X5)
EC50 [1]: 0.02 nM | Emax [1]: 89% | C0 [2]: 4350 nM | half-life [2]: 6.69 h | Cmax [2]: 1510 nM | Tmax [2]: 8 h | bioavailability [2]: 59%

CCCCCCCCCCCCCCCC(=O)N[C@@H](CCC(=O)N[C@@H](CCC(=O)NCCCC[C@H](NC(=O)CC[C@H](NC(=O)CC[C@H](NC(=O)COCCOCCNC(=O)COCCOCCNC(=O)COCCOCCNC(=O)COCCOCCNC(=O)[C@H](CCCCNC(C)=O)NC(=O)[C@H](C)NC(=O)[C@H](CCCNC(=N)N)NC(=O)[C@](C)(CCCCN)NC(=O)[C@H](CO)NC(=O)[C@H](Cc1ccccc1)NC(=O)[C@@H](NC(=O)[C@H](CO)NC(=O)[C@H](CCCC)NC(=O)CNC(=O)[C@H](CCC(=O)O)NC(=O)C(C)(C)NC(=O)C(C)(C)NC(=O)[C@@H](NC(=O)[C@H](CCCCNC(C)=O)NC(=O)[C@H](C)NC(=O)[C@H](CCCNC(=N)N)NC(=O)[C@@H](NC(=O)[C@H](CCCCN)NC(=O)[C@H](CCC(=O)O)NC(=O)[C@H](CCCNC(=N)N)NC(=O)CNC(=O)[C@H](CCC(=O)O)NC(=O)[C@H](CC(C)C)NC(C)=O)C(C)C)[C@@H](C)CC)[C@@H](C)O)C(=O)O)C(=O)O)C(N)=O)C(=O)O)C(=O)O [compound 160] (Ac-LEGREKVRAK(Ac)I[Aib][Aib]EG[Nle]STFS[αMeK]RAK(Ac)[AEEA][AEEA][AEEA][AEEA][γGlu][γGlu]K([γGlu-γGlu-Palmitoyl])-NH2)
EC50 [1]: 0.28 nM | Emax [1]: 86% | C0 [2]: 2500 nM | half-life [2]: 5.3 h | Cmax [2]: 1200 nM | Tmax [2]: 7 h | bioavailability [2]: 66%

CCCCCCCCCCCCCCCC(=O)N[C@@H](CCC(=O)N[C@@H](CCC(=O)N[C@@H](CCC(=O)N[C@@H](CCC(=O)NCCCC[C@H](NC(=O)CCC(=O)NCCCOCCOCCOCCCNC(=O)CCC(=O)NCCCOCCOCCOCCCNC(=O)[C@H](CCCCNC(C)=O)NC(=O)[C@H](C)NC(=O)[C@H](CCCNC(=N)N)NC(=O)[C@](C)(CCCCN)NC(=O)[C@H](CO)NC(=O)[C@H](Cc1ccccc1)NC(=O)[C@@H](NC(=O)[C@H](CO)NC(=O)[C@H](CCCC)NC(=O)CNC(=O)[C@H](CCC(=O)O)NC(=O)C(C)(C)NC(=O)C(C)(C)NC(=O)[C@@H](NC(=O)[C@H](CCCCNC(C)=O)NC(=O)[C@H](C)NC(=O)[C@H](CCCNC(=N)N)NC(=O)[C@@H](NC(=O)[C@H](CCCCN)NC(=O)[C@H](CCC(=O)O)NC(=O)[C@H](CCCNC(=N)N)NC(=O)CNC(=O)[C@H](CCC(=O)O)NC(=O)[C@H](CC(C)C)NC(C)=O)C(C)C)[C@@H](C)CC)[C@@H](C)O)C(N)=O)C(=O)O)C(=O)O)C(=O)O)C(=O)O [compound 162] (Ac-LEGREKVRAK(Ac)I[Aib][Aib]EG[Nle]STFS[αMeK]RAK(Ac)-X3)
EC50 [1]: 0.12 nM | Emax [1]: 91% | C0 [2]: 3200 nM | half-life [2]: 5 h | Cmax [2]: 2300 nM | Tmax [2]: 5 h | bioavailability [2]: 64%
